Measurements: PubChem BioAssay AID2060488 (Molecular Pharmacology Branch, DTP, NCI, 2025)

System: 966289-007-R4-J1-PDC complex spheroid viability
Assay: Anticancer human tumor 966289-007-R4-J1-PDC patient-derived pancreatic adenocarcinoma cell line growth inhibition [GQUAD]
Settings: for IC50: curve of first compound; for viability, T/C: stronger effect = lower value
In short: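 Tumor cells were grown as complex spheroids with HUVEC endothelial cells and mesenchymal stem cells as stroma. G-quadruplex stabilizers were combined with targeted agents over half-log dilutions from near the clinical Cmax, or from 10 microM.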

[1] = second compound 0.0316 µM, first compound 0.0316 µM
[2] = second compound 0.0316 µM, first compound 0.1 µM
[3] = second compound 0.0316 µM, first compound 0.316 µM
[4] = second compound 0.0316 µM, first compound 1 µM
[5] = second compound 0.0316 µM, first compound 3.16 µM
[6] = second compound 0.0316 µM, first compound 10 µM
[7] = second compound 0.1 µM, first compound 0.0316 µM
[8] = second compound 0.1 µM, first compound 0.1 µM
[9] = second compound 0.1 µM, first compound 0.316 µM
[10] = second compound 0.1 µM, first compound 1 µM
[11] = second compound 0.1 µM, first compound 3.16 µM
[12] = second compound 0.1 µM, first compound 10 µM
[13] = second compound 0.316 µM, first compound 0.0316 µM
[14] = second compound 0.316 µM, first compound 0.1 µM
[15] = second compound 0.316 µM, first compound 0.316 µM
[16] = second compound 0.316 µM, first compound 1 µM
[17] = second compound 0.316 µM, first compound 3.16 µM
[18] = second compound 0.316 µM, first compound 10 µM
[19] = second compound 1 µM, first compound 0.0316 µM
[20] = second compound 1 µM, first compound 0.1 µM
[21] = second compound 1 µM, first compound 0.316 µM
[22] = second compound 1 µM, first compound 1 µM
[23] = second compound 1 µM, first compound 3.16 µM
[24] = second compound 1 µM, first compound 10 µM
[25] = second compound 3.16 µM, first compound 0.0316 µM
[26] = second compound 3.16 µM, first compound 0.1 µM
[27] = second compound 3.16 µM, first compound 0.316 µM
[28] = second compound 3.16 µM, first compound 1 µM
[29] = second compound 3.16 µM, first compound 3.16 µM
[30] = second compound 3.16 µM, first compound 10 µM
[31] = second compound 10 µM, first compound 0.0316 µM
[32] = second compound 10 µM, first compound 0.1 µM
[33] = second compound 10 µM, first compound 0.316 µM
[34] = second compound 10 µM, first compound 1 µM
[35] = second compound 10 µM, first compound 3.16 µM
[36] = second compound 10 µM, first compound 10 µM
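Also: spheroids exposed to the agents for seven days before readout.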
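For viability, T/C in this document: percent viability relative to DMSO vehicle control wells taken as 100%.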

O=C(NO)c1cnc(N2CCN(S(=O)(=O)c3ccc4ccccc4c3)CC2)nc1 + Cc1[nH]c2ccc(F)cc2c1-c1nc2c3cccnc3c3ncccc3c2[nH]1
IC50 (second compound 0.0316 µM): 682 nM | IC50 (second compound 0.1 µM): 847 nM | IC50 (second compound 0.316 µM): 1170 nM | IC50 (second compound 1 µM): 1250 nM | IC50 (second compound 3.16 µM): 943 nM | IC50 (second compound 10 µM): 948 nM | viability, T/C [1]: 100% | viability, T/C [2]: 96.8% | viability, T/C [3]: 112% | viability, T/C [4]: 23.5% | viability, T/C [5]: 1.82% | viability, T/C [6]: 0.49% | viability, T/C [7]: 104% | viability, T/C [8]: 97.4% | viability, T/C [9]: 110% | viability, T/C [10]: 41% | viability, T/C [11]: 1.2% | viability, T/C [12]: 0.14% | viability, T/C [13]: 103% | viability, T/C [14]: 97.2% | viability, T/C [15]: 110% | viability, T/C [16]: 57.5% | viability, T/C [17]: 3.37% | viability, T/C [18]: 0.12% | viability, T/C [19]: 94.7% | viability, T/C [20]: 102% | viability, T/C [21]: 115% | viability, T/C [22]: 61.3% | viability, T/C [23]: 4.62% | viability, T/C [24]: 0.3% | viability, T/C [25]: 101% | viability, T/C [26]: 111% | viability, T/C [27]: 111% | viability, T/C [28]: 46.9% | viability, T/C [29]: 3.24% | viability, T/C [30]: 0.41% | viability, T/C [31]: 112% | viability, T/C [32]: 104% | viability, T/C [33]: 115% | viability, T/C [34]: 47.1% | viability, T/C [35]: 2.05% | viability, T/C [36]: 0.25%

CC[C@@]1(O)C(=O)OCc2c1cc1n(c2=O)Cc2cc3c(CN(C)C)c(O)ccc3nc2-1 + Cc1cnc(CNC(=O)c2c(=O)c3ccc(N4CCCN(C)CC4)nc3n3c2sc2ccccc23)cn1
IC50 (second compound 0.0316 µM): 14.7 nM | IC50 (second compound 0.1 µM): < 0.999 nM | IC50 (second compound 0.316 µM): < 0.999 nM | IC50 (second compound 1 µM): < 0.999 nM | IC50 (second compound 3.16 µM): < 0.999 nM | IC50 (second compound 10 µM): < 0.999 nM | viability, T/C (second compound 0.0316 µM, first compound 0.000999 µM): 114% | viability, T/C (second compound 0.0316 µM, first compound 0.00316 µM): 101% | viability, T/C (second compound 0.0316 µM, first compound 0.00999 µM): 70.2% | viability, T/C [1]: 11% | viability, T/C (second compound 0.0316 µM, first compound 0.0999 µM): 0.58% | viability, T/C [3]: 0.79% | viability, T/C (second compound 0.1 µM, first compound 0.000999 µM): 37.3% | viability, T/C (second compound 0.1 µM, first compound 0.00316 µM): 28.6% | viability, T/C (second compound 0.1 µM, first compound 0.00999 µM): 16.8% | viability, T/C [7]: 3.15% | viability, T/C (second compound 0.1 µM, first compound 0.0999 µM): 0.77% | viability, T/C [9]: 0.75% | viability, T/C (second compound 0.316 µM, first compound 0.000999 µM): 9.34% | viability, T/C (second compound 0.316 µM, first compound 0.00316 µM): 13.5% | viability, T/C (second compound 0.316 µM, first compound 0.00999 µM): 8.56% | viability, T/C [13]: 2.61% | viability, T/C (second compound 0.316 µM, first compound 0.0999 µM): 0.93% | viability, T/C [15]: 0.49% | viability, T/C (second compound 1 µM, first compound 0.000999 µM): 5.94% | viability, T/C (second compound 1 µM, first compound 0.00316 µM): 5.56% | viability, T/C (second compound 1 µM, first compound 0.00999 µM): 4.48% | viability, T/C [19]: 1.71% | viability, T/C (second compound 1 µM, first compound 0.0999 µM): 0.92% | viability, T/C [21]: 0.68% | viability, T/C (second compound 3.16 µM, first compound 0.000999 µM): 3.9% | viability, T/C (second compound 3.16 µM, first compound 0.00316 µM): 3.89% | viability, T/C (second compound 3.16 µM, first compound 0.00999 µM): 3.05% | viability, T/C [25]: 0.13% | viability, T/C (second compound 3.16 µM, first compound 0.0999 µM): 0.08% | viability, T/C [27]: 0.07% | viability, T/C (second compound 10 µM, first compound 0.000999 µM): 0.03% | viability, T/C (second compound 10 µM, first compound 0.00316 µM): 0.08% | viability, T/C (second compound 10 µM, first compound 0.00999 µM): 0.12% | viability, T/C [31]: 0.09% | viability, T/C (second compound 10 µM, first compound 0.0999 µM): 0.3% | viability, T/C [33]: 0.11%

COc1ccc([C@@H](O)c2cc(-c3ncnc4cc(N5CCOCC5)ccc34)c(F)cc2Cl)nn1 + Cc1[nH]c2ccc(F)cc2c1-c1nc2c3cccnc3c3ncccc3c2[nH]1
IC50 (second compound 0.0316 µM): > 10000 nM | IC50 (second compound 0.1 µM): > 10000 nM | IC50 (second compound 0.316 µM): > 10000 nM | IC50 (second compound 1 µM): > 10000 nM | IC50 (second compound 3.16 µM): > 10000 nM | IC50 (second compound 10 µM): > 10000 nM | viability, T/C [1]: 106% | viability, T/C [2]: 94.7% | viability, T/C [3]: 108% | viability, T/C [4]: 104% | viability, T/C [5]: 112% | viability, T/C [6]: 85.6% | viability, T/C [7]: 107% | viability, T/C [8]: 101% | viability, T/C [9]: 106% | viability, T/C [10]: 104% | viability, T/C [11]: 111% | viability, T/C [12]: 87.8% | viability, T/C [13]: 94.5% | viability, T/C [14]: 102% | viability, T/C [15]: 104% | viability, T/C [16]: 108% | viability, T/C [17]: 111% | viability, T/C [18]: 92.9% | viability, T/C [19]: 91.3% | viability, T/C [20]: 98.4% | viability, T/C [21]: 108% | viability, T/C [22]: 106% | viability, T/C [23]: 109% | viability, T/C [24]: 87.8% | viability, T/C [25]: 100% | viability, T/C [26]: 103% | viability, T/C [27]: 109% | viability, T/C [28]: 108% | viability, T/C [29]: 103% | viability, T/C [30]: 70.7% | viability, T/C [31]: 103% | viability, T/C [32]: 103% | viability, T/C [33]: 106% | viability, T/C [34]: 102% | viability, T/C [35]: 105% | viability, T/C [36]: 56.3%

CCCS(=O)(=O)Nc1ccc(F)c(C(=O)c2c[nH]c3ncc(-c4ccc(Cl)cc4)cc23)c1F + Cc1cnc(CNC(=O)c2c(=O)c3ccc(N4CCCN(C)CC4)nc3n3c2sc2ccccc23)cn1
IC50 (second compound 0.0316 µM): 6500 nM | IC50 (second compound 0.1 µM): < 31.6 nM | IC50 (second compound 0.316 µM): < 31.6 nM | IC50 (second compound 1 µM): < 31.6 nM | IC50 (second compound 3.16 µM): < 31.6 nM | IC50 (second compound 10 µM): < 31.6 nM | viability, T/C [1]: 117% | viability, T/C [2]: 109% | viability, T/C [3]: 111% | viability, T/C [4]: 99.9% | viability, T/C [5]: 89.8% | viability, T/C [6]: 27.1% | viability, T/C [7]: 34.8% | viability, T/C [8]: 34.5% | viability, T/C [9]: 32% | viability, T/C [10]: 26.7% | viability, T/C [11]: 25.5% | viability, T/C [12]: 16.1% | viability, T/C [13]: 11.4% | viability, T/C [14]: 10.7% | viability, T/C [15]: 8.91% | viability, T/C [16]: 8.64% | viability, T/C [17]: 9.45% | viability, T/C [18]: 8.17% | viability, T/C [19]: 6.02% | viability, T/C [20]: 7.02% | viability, T/C [21]: 5.64% | viability, T/C [22]: 4.34% | viability, T/C [23]: 4.77% | viability, T/C [24]: 3.64% | viability, T/C [25]: 4.08% | viability, T/C [26]: 4.51% | viability, T/C [27]: 4.86% | viability, T/C [28]: 3.92% | viability, T/C [29]: 3.36% | viability, T/C [30]: 1.47% | viability, T/C [31]: 0.08% | viability, T/C [32]: 0.11% | viability, T/C [33]: 0.13% | viability, T/C [34]: 0.26% | viability, T/C [35]: 0.86% | viability, T/C [36]: 0.14%
